Experimental findings from a melting point compilation (Tetko et al.; mined from patent text by program, amines drawn as free bases though some values may be those of a salt) are described below.

For orientation: melting point means the temperature, or range, at which the solid turns liquid. Consider `Cc1c(Cc2ccc([N+](=O)[O-])cc2)c(=O)oc2cc(OCC#N)cc(OCC#N)c12`, for which the melting point lay in the range of 178 to 185 °C. Turning to `CCOC(=O)c1c(C)nc(N2CCN(C)CC2)c2nnn(CC)c12`, the melting point was in the range of 63 to 65 °C.

`O=C(c1ccccc1)c1cc2c(s1)S(=O)(=O)CCc1cc(=O)n(-c3ccc(Cl)cc3)nc1-2` displayed a melting point of 254 to 256 °C.

`CC(C)NC(=O)C(=O)c1ccc(Cl)cc1`: the melting point was determined as 79 °C.

The compound `CC(=O)c1c[nH]c2cn[nH]c2c1=O` registered a melting point greater than 320 °C.

On to `CCC(CCc1cc(-c2ccccc2)nc2ccccc12)C(=O)N(CC)CC` (stereo unspecified), for which the melting point is 81 °C. The compound `OCC1OC(n2cnc3c(NCC4(c5ccccc5)CCCCC4)ncnc32)C(O)C1O` (stereo unspecified) gave a melting point of 87 to 89 °C. To `c1ccc(NC(Nc2ccccc2)Nc2ccccc2)cc1` belongs 138 to 139 °C; to `CN(C)C(=O)C(C)(C)n1cc(Cl)c(-c2ccccc2Cl)n1`, 161 to 163 °C.

On to `Cn1cc(C(=O)Nc2ccccc2OC(F)(F)C(F)Cl)c(C(F)(F)F)n1` (stereo unspecified), for which the melting point lay in the range of 94 to 95 °C. The compound `Cc1nc2c(O)c(C(=O)[C@@H]3OC(C)(C)O[C@H]3c3ccccc3)ccc2n1C1CC1` showed a melting point of 153 °C.

`Cc1nc(N2CCN(Cc3ccccc3)CC2)ncc1C(N)=O`: the melting point was in the range of 195 to 196 °C. Regarding `COc1nc(Nc2ccc(Cl)cc2[N+](=O)[O-])nc(OC)n1`, the melting point lay within 206 to 208 °C. Turning to `CN(C)c1cccc2c(S(=O)(=O)NCC(=O)N3CCC[C@H]3C(=O)OC(C)(C)C)cccc12`, the melting point lay in the range of 60 to 67 °C. To `Cc1coc2cc(Cl)cc(Cl)c12` belongs 45 °C; to `CN(C)C(=O)c1cc(-c2ncc(C(F)(F)F)cc2Cl)ccc1Cl`, 90 to 91 °C. To `CCCCCCS(=O)(=O)c1ccc(N)cc1` belongs 95 to 97 °C. With `CCCCc1nn(-c2cc([N+](=O)[O-])ccc2Br)c(=O)n1Cc1ccc(-c2ccccc2S(=O)(=O)NC(C)(C)C)cc1F`, the melting point was 137 to 139 °C. To `CCc1ccc(COc2ccc(CC(NC(=O)c3cc4cc(-c5ccc(Cl)cc5)ccc4s3)C(=O)O)cc2)cc1` (stereo unspecified) belongs 205 °C.

`COc1ccc(CC(C)=O)cc1S(=O)(=O)N1CCSCC1` had a melting point of 118 to 122 °C. Compound `CCN(CC)c1ccc(C(=O)C(C)(C)N2CCOCC2)cc1` displayed a melting point of 86 to 89 °C. `CCOCCn1c(CN2CCN(CC(O)COc3ccccc3)CC2)nc2cccnc21` (stereo unspecified): the melting point amounted to 102 °C. `COc1ccc2sc(C(=O)OCC(C)(C)C(O)C(C)(C)C)cc2c1` (stereo unspecified) gave a melting point of 121 to 122 °C. `COc1cc(OC)c2c(c1)c(-c1cc3cccnc3[nH]1)cn2C` gave a melting point of 220 °C.

For `CCOP(=O)(CC(=O)Nc1cc2c(Nc3ccc(Cl)c(Br)c3)ncnc2cn1)OCC`, the melting point is 113 to 116 °C.

`Cc1ccc(-c2cc(F)c(F)cc2-c2ccc(S(C)(=O)=O)cc2)cn1`: the melting point was 141 to 142 °C. `O=C(Oc1ccccc1)N1CCC2(CC1)SC(c1ccc(Cl)c(Cl)c1)c1ccccc12` (stereo unspecified) yielded a melting point of 200 to 202 °C.

In turn, `CCCCc1cc2c(C)n(C)nc2c(N)n1` gave a melting point of 130 to 131 °C. Compound `CCOc1ccc(CC2CCN(CCCCNC(=O)c3ccc(-c4ccc(C(F)(F)F)cc4)cc3)CC2)c(OCC)c1` came in with a melting point of 136 to 137 °C.

Consider `O=C(c1ccc(OC(F)F)c2oc3ccccc3c12)[NH+]([O-])c1ccncc1` (stereo unspecified), for which the melting point turned out to be 244 °C. Under `CCCCC(O)c1cn(C(c2ccccc2)(c2ccccc2)c2ccccc2)cn1` (stereo unspecified) stands 119 to 120 °C. The compound `C=CCN1CCCN(c2c(C)cccc2Cl)C1=S` gave a melting point of 82 to 84 °C. To `CCCc1ncc(/C=C(\Cc2cccs2)c2nnn[nH]2)n1Cc1ccccc1Cl` belongs 174 to 175 °C; to `CCC(CC)Sc1cc(S(N)(=O)=O)c(N)cc1Cl`, 118 to 120 °C; to `CCCNC(=S)c1ccc2c(c1)N(C(C)CN(CC)CC)c1ccc(Cl)cc1S2` (racemic), 130 °C. Under `CC(C)n1nc(-c2c(-c3ccccc3)nn3ccc(OCCN4CCCC4=O)cc23)ccc1=O` stands 162 to 163 °C. Under `CCOC(=O)N1CCC2C(C1)c1cccc3c1N2CC(=O)N3` (stereo unspecified) stands 167 to 168 °C; under `CCOC(=O)N1CCc2nc(-c3ccncn3)cc(=O)n2CC1`, 144 to 146 °C. The compound `O=C(OC1COC1)c1sccc1OS(=O)(=O)Cl` showed a melting point of 92 to 94 °C.

Consider `CCCCCCCCOc1ccc(-c2cnc(-c3ccc(O)cc3)nc2)cc1`, for which the melting point is 137 °C.

Turning to `COCn1ccnc1C(O)(c1ccc(Cl)cc1)c1ccc(C(C)(C)C)cc1` (stereo unspecified), the melting point was 162 to 163 °C. As for `O=C(O)c1n[nH]c2cc(F)ccc12`, the melting point was greater than 290 °C. `CC(O)(c1nc2cc([N+](=O)[O-])ccc2s1)C(F)(F)F` (stereo unspecified) returned a melting point of 66 to 69 °C. To `Cc1oc(-c2cc3ccccc3s2)nc1COc1ccc(CCCCn2cncn2)cc1` belongs 131 to 132 °C. `CC(C)(C)OC(=O)NCC(=O)OCCCNc1ccc(O)c2c1C(=O)c1c(O)cccc1C2=O` showed a melting point of 152 °C. Turning to `COC(=O)c1c(-c2cccs2)c2cc(OCc3ccccc3)ccc2c(=O)n1CC(C)C`, the melting point is 143 to 144 °C.

Consider `Cc1nc(-c2ccccc2)nc(-c2ccc([N+](=O)[O-])cc2)c1C(C)O` (stereo unspecified), for which the melting point was 146 to 148 °C. Consider `CCNC(=O)C=CC(C)=CC=C(C)c1ccc2c(c1)C(C)(C)CCC2(C)C`, for which the melting point was 150 to 159 °C. With `O=C(Nc1n[nH]c(=S)s1)N[C@@H](Cc1ccccc1)C(=O)N1CCN(c2ccccc2)CC1`, the melting point lay within 210 to 211 °C. To `CC(=O)c1cc2c(c(C=O)c1O)CCCC2` belongs 77.5 to 78.5 °C; to `CN1C(=O)CN=C(c2ccccc2F)c2cc(NC(=O)NC(C)(C)CO)ccc21`, 162 to 176 °C. With `CC(C)(F)c1cnn2c(-c3ccc(F)c(-c4c(F)cccc4C#N)c3)cnc2n1`, the melting point lay in the range of 187 to 188 °C. Regarding `OCC1CNCCC1c1ccc(F)cc1` (stereo unspecified), the melting point fell in the range of 123 to 124 °C.

Take `Fc1ccc(/C=C/c2cc(F)cc(F)c2)cc1`: the melting point was 47 °C. Under `O=P1(Oc2ccccc2)CCCC(CI)O1` (stereo unspecified) stands 128 °C; under `CNC(=O)C(=NO)c1ccccc1CO`, 128 to 131 °C; under `COc1ccc(C2=NN(C3CCN(C(=O)CCl)CC3)C(=O)[C@@H]3CC=CC[C@H]23)cc1OC`, 104 to 106 °C. To `CC1CC(=O)NN=C1c1ccc(-n2cnc3c2CCCC3)nc1` (stereo unspecified) belongs 234 to 235 °C. Compound `O=[N+]([O-])c1cnc2c(F)c(Cl)c(F)cc2c1` registered a melting point of 174 °C.

`O=C1CCC(N2Cc3c(OCc4ccc(CN5CCN(S(=O)(=O)C(F)(F)F)CC5)cc4)cccc3C2=O)C(=O)N1` (stereo unspecified): the melting point fell in the range of 135 to 137 °C. In the case of `O=C1CNC(=O)[C@@H](CO)N1`, the melting point turned out to be 218 °C. `CCCCc1nc(SC)c(C(C)=O)n1Cc1ccc(-c2ccccc2S(=O)(=O)NC(=O)NCCC)cc1` yielded a melting point of 176 to 177 °C.

As for `Cc1ccc(S(=O)(=O)N2CCC(C#N)(c3ccc(Cl)cc3)CC2)cc1`, the melting point lay within 202 to 206 °C.

For `CN(C)c1ccc(NC(=O)N(CC2CCCCC2)C[C@H]2CCC[C@H](CN(CC3CCCCC3)C(=O)Nc3ccc(N(C)C)cc3)C2)cc1` (relative stereo), the melting point was in the range of 136 to 140 °C. As for `NC(=O)c1ccc(N2CCN(Cc3cn4cc(Cl)cc(Cl)c4n3)CC2)cc1`, the melting point was 234 to 235 °C.

Turning to `CC(C)n1nc(-c2c(NCc3ccccc3)nc(N)nc2-c2ccc(F)cc2)ccc1=O`, the melting point was 191 to 192 °C. Under `CN(C)C1CCCN(C(=O)c2n[nH]c3ccccc23)C1` (stereo unspecified) stands 141 to 142 °C. To `CC(CS)C(=O)N(CC(=O)O)C1CCCCC1` (stereo unspecified) belongs 158 to 160 °C; to `O=S(=O)(CC1CCCCN1S(=O)(=O)c1ccccc1)c1ccc(Cl)cc1` (stereo unspecified), 129 to 131 °C; to `O=C(Nc1ccccc1)N1Cc2sccc2C(O)C1` (stereo unspecified), 200 °C.

In the case of `CCOC(N)=C(C#N)C#N`, the melting point was found to be 233 °C.

`CC(CCCC(C)(C)O)C1CCC2C3=CC=C4CC(O)CCC4(C)C3CCC21C` (stereo unspecified): the melting point was in the range of 122 to 125 °C. To `CCc1oc2ccccc2c1C(=O)NCc1ccc2c(Br)c(OCC#N)ccc2c1` belongs 181 to 183 °C; to `COC(=O)c1cccnc1C(=O)c1ccc(-n2ccnc2)cc1`, 171 to 174 °C. `COc1ccc2c(c1)c(C)c(CC(C)C(=O)O)n2Cc1ccc(Cl)cc1` (stereo unspecified) registered a melting point of 128 °C.

Compound `NS(=O)(=O)c1ccc(S(=O)(=O)CCCc2ccc(O)cc2)s1` displayed a melting point of 112 to 115 °C. Under `CCc1cc(C=Cc2nc3ccccc3o2)c(=O)[nH]c1C` stands 262 to 264 °C. For the compound `COc1ccccc1N1CC[N+]([O-])(CCN(C(=O)C2CCCCC2)c2ccccc2[N+](=O)[O-])CC1`, the melting point lay within 128 to 132 °C. To `O=C(O)CCCCCOc1ccc(CCc2ccncc2)cc1` belongs 180 to 182 °C; to `CNc1c(S(=O)(=O)C(F)(F)F)c(-c2ncon2)nn1-c1c(Cl)cc(C(F)(F)F)cc1Cl`, 156 to 158 °C; to `CCCn1nc(C(C)C)c(C(N)=O)c1Cc1ccc(-c2ccccc2-c2nnn[nH]2)cc1`, 156 to 159 °C. To `CC1(CN2CCN(c3cccc4c3OCCO4)CC2)N=C(c2ccccc2)NC1=O` (stereo unspecified) belongs 80 to 85 °C. To `Nc1ccc(-c2nccc(-c3nc(-c4ccc(C(F)(F)F)cc4)cc(C(F)(F)F)n3)n2)cn1` belongs 236 °C; to `Cc1c(F)cccc1Cc1c(-c2ccccc2)c2ccccn2c1C(=O)N1CCN(C(=O)OC(C)(C)C)CC1`, 263 °C. As for `CC(C)OC(=O)c1cc(NC(=O)c2c(Cl)c(Cl)c(Cl)c(Cl)c2C(=O)O)ccc1Cl`, the melting point was 178 to 179 °C. In turn, `COc1ccc2c(c1F)C(=O)OC2=O` yielded a melting point of 128 to 130 °C.
